Measured values: patent US11952593B2, “Detection and treatment of daughter number variations in cancer cells” (PharmacoGenetics Limited, priority 2020, dated 2024)

Key:
Format in all cases: cell-based, human
[1] = system: HeLa cervical adenocarcinoma cells; assay: Time-lapse microscopy count of multi-daughter divisions (DNV frequency), HeLa; conditions: wogonin 50 μM, 5-FU 20 μM
Protocol: (§1) To investigate DNVs, the human HepG2 hepatocellular carcinoma, HeLa cervical adenocarcinoma, and A549 lung adenocarcinoma cell lines, as well as the non-cancerous RPE1 line of hTRET-immortalized retina epithelial cells, were obtained from the American Type Culture Collection (ATCC, Manassas, Va., USA) and cultivated in Dulbecco's Modified Eagle Medium (DMEM) supplemented with 10% fetal bovine serum (Gemini Bio-Products, Sacramento. Calif.) under a humidified atmosphere of 5% C02 at 37° C. After 24 hours, the old medium was replaced by acidic DMEM growth medium buffered by 15 mM 2-(N-morpholino)-ethanesulfonic acid.HCl (MES) at pH 6.4, neutral DMEM growth medium buffered by 15 mM 3-(N-morpholino)propanesulfonic acid.HCl (MOPS) at pH 7.4, alkaline growth medium buffered by 15 mM tris(hydroxymethyl)aminomethane.HCl (Tris) at pH 8.4, or neutral DMEM growth medium containing wogonin (50 μM) or 5-FU (20 μM). Using phase contrast microscopy, time-lapse photographs were recorded at different positions of the wells at 15-minute intervals for 24 hours using the Nikon ECLIPSE Ti Live Cell Imaging Observatory, enabling the count of P1 through P8 patterns at the end of Stage 2 of the DNV process (FIG. 1). All the images were photographed at 100× magnification. Altemately, using fluorescence microscopy, the cells were seeded into 12 well plates at 1×10^3 per well and stained with Hoechst 33342 ([…], Thermofisher) for 30 minutes in an incubator at 37° C. After 30 minutes, culture medium was replaced by various treatment media and placed under the Nikon ECLIPSE Ti Live Cell Imaging Observatory for 24 hours. For the HeLa, HepG2 and A549 cells, the various treatments were also extended to 5 days. Because the RPE1 cells yielded no DNVs after 24 hours of drug treatment, its treatment periods were not extended beyond 24 hours. All the cells were manually traced and quantified using the ImageJ software. DNV frequencies were estimated by dividing the total number of multi-daughter ([…]) divisions by the total number of cell divisions. Fluorescence staining and time-lapse microscopy were employed to differentiate between the bi-, tri-, tetra- and penta-daughter cell divisions, and to estimate the percentages of the P1 through P8 patterns in the final daughter cells generated by each of the DNV events. GraphPad Prism 5.0 software was employed for statistical analysis, and the results were presented as the mean. Significance was determined using the Student t-test (two-tailed, unpaired/unequal variances).

HepG2 cells = assay: Cell cytotoxicity assay (crystal violet), HepG2; conditions: HepG2, 24 hours, 50 μM wogonin, 20 μM 5-FU, absorbance 600 nm
Protocol: (§2) Cell cytotoxicity assay was carried out on 96 well plate, where cells were treated with neutral, acidic, alkaline pH and anti-cancer drug wogonin or 5-FU. After 24 hours, crystal violet (8% in methanol), and dye absorbed by live cells was extracted with sodium citrate (0.1 M) in 50% ethanol. Absorbance was read at 600 nm.
(§3) HepG2, HeLa and A549 cells were grown to a monolayer density of 1×10^3 per well in neutral growth medium overnight. There upon the cells were changed to various treatment media at neutral, acidic and alkaline pHs, neutral medium containing 50 μM wogonin and neutral medium containing 20 μM 5-FU, for 24 hours at 37° C. in humidified 5% CO2 atmosphere. Following the treatment, floating cells were removed, and the attached cells were stained with crystal violet (8% in methanol); the dye absorbed by the live cells was extracted with sodium citrate (0.1 M) in 50% ethanol [1 25], and quantitated by absorbance at 600 nm.

[2] = system: HepG2 hepatocellular carcinoma cells; assay: Time-lapse microscopy count of multi-daughter divisions (DNV frequency), HepG2; conditions: wogonin 50 μM, 5-FU 20 μM
Protocol: as §1

A549 cells = assay: Cell cytotoxicity assay (crystal violet), A549; conditions: A549, 24 hours, 50 μM wogonin, 20 μM 5-FU, absorbance 600 nm
Protocol: as §2, §3

[3] = system: A549 lung adenocarcinoma cells; assay: Time-lapse microscopy count of multi-daughter divisions (DNV frequency), A549; conditions: wogonin 50 μM, 5-FU 20 μM
Protocol: as §1

## COc1c(O)cc(O)c2c(=O)cc(-c3ccccc3)oc12 [Wogonin, wogonin]
[1]; 24 hours
  Bi-daughter divisions, % of total divisions: 98.3%
  Bi-daughter divisions, number: 3041
  Sum of Multi daughter Divisions, % of total mitotic divisions: 1.70%
  Sum of Multi daughter Divisions, number: 53
  Tetra-daughter divisions, % of total divisions: 0.19%
  Tetra-daughter divisions, number: 6
  Total number of observed divisions: 3094 (100)
  Tri-daughter divisions, % of total divisions: 1.54%
  Tri-daughter divisions, number: 47
  ≥Tetra-daughter divisions, number: 0
[1]; 5 days
  Bi-daughter divisions, % of total divisions: 84%
  Bi-daughter divisions, number: 205
  Sum of Multi-daughter Divisions, % of total mitotic divisions: 16.3%
  Sum of Multi-daughter Divisions, number: 40
  Tetra-daughter divisions, % of total divisions: 2.4%
  Tetra-daughter divisions, number: 6
  Total Divisions: 245 (100)
  Tri-daughter divisions, % of total divisions: 13.0%
  Tri-daughter divisions, number: 32
  ≥Tetra-daughter divisions, % of total divisions: 0.8%
  ≥Tetra-daughter divisions, number: 2
HepG2 cells
  Cell death as compared to neutral pH: increased cell death
[2]; HepG2, 24 hours
  Bi-daughter divisions, % of total divisions: 97.0%
  Bi-daughter divisions, number: 2482
  Sum of Multi daughter Divisions, % of total mitotic divisions: 2.97%
  Sum of Multi daughter Divisions, number: 76
  Tetra-daughter divisions, % of total divisions: 0.70%
  Tetra-daughter divisions, number: 18
  Total number of observed divisions: 2558 (100)
  Tri-daughter divisions, % of total divisions: 2.19%
  Tri-daughter divisions, number: 56
  ≥Tetra-daughter divisions, % of total divisions: 0.08%
  ≥Tetra-daughter divisions, number: 2
[2]; HepG2, 5 days
  Bi-daughter divisions, % of total divisions: 83.9%
  Bi-daughter divisions, number: 262
  Sum of Multi-daughter Divisions, % of total mitotic divisions: 16.0%
  Sum of Multi-daughter Divisions, number: 50
  Tetra-daughter divisions, % of total divisions: 3.8%
  Tetra-daughter divisions, number: 12
  Total Divisions: 312 (100)
  Tri-daughter divisions, % of total divisions: 16.0%
  Tri-daughter divisions, number: 50
  ≥Tetra-daughter divisions, % of total divisions: 2.5%
  ≥Tetra-daughter divisions, number: 8
[2]; HepG2, 5 days, listed as wogonin
  Sum of Multi-daughter Divisions, % of total mitotic divisions: 18.0%
A549 cells
  Cell death as compared to neutral pH: increased cell death
[3]; A549, 24 hours
  Bi-daughter divisions, % of total divisions: 99.6%
  Bi-daughter divisions, number: 1986
  Sum of Multi-daughter Divisions, % of total mitotic divisions: 0.3%
  Sum of Multi-daughter Divisions, number: 6
  Total number of observed divisions: 1992 (100)
  Tri-daughter divisions, % of total divisions: 0.30%
  Tri-daughter divisions, number: 6
[3]; A549, 24 hours, listed as wogonin
  Sum of Multi-daughter Divisions, % of total mitotic divisions: 0.30%
[3]; A549, 5 days
  Bi-daughter divisions, % of total divisions: 94.6%
  Bi-daughter divisions, number: 230
  Sum of Multi-daughter Divisions, % of total mitotic divisions: 5.3%
  Sum of Multi-daughter Divisions, number: 13
  Tetra-daughter divisions, % of total divisions: 2.4%
  Tetra-daughter divisions, number: 6
  Total Divisions: 243 (100)
  Tri-daughter divisions, % of total divisions: 2.8%
  Tri-daughter divisions, number: 7
  ≥Tetra-daughter divisions, number: 0

## O=c1[nH]cc(F)c(=O)[nH]1 [5-FU, 5-flurouracil]
[1]; 24 hours
  Bi-daughter divisions, % of total divisions: 99.0%
  Bi-daughter divisions, number: 3264
  Sum of Multi daughter Divisions, % of total mitotic divisions: 0.97%
  Sum of Multi daughter Divisions, number: 32
  Tetra-daughter divisions, % of total divisions: 0.09%
  Tetra-daughter divisions, number: 3
  Total number of observed divisions: 3296 (100)
  Tri-daughter divisions, % of total divisions: 0.88%
  Tri-daughter divisions, number: 29
  ≥Tetra-daughter divisions, number: 0
[1]; 5 days
  Bi-daughter divisions, % of total divisions: 91.8%
  Bi-daughter divisions, number: 143
  Sum of Multi-daughter Divisions, % of total mitotic divisions: 8.3%
  Sum of Multi-daughter Divisions, number: 13
  Tetra-daughter divisions, number: 0
  Total Divisions: 156 (100)
  Tri-daughter divisions, % of total divisions: 8.3%
  Tri-daughter divisions, number: 13
  ≥Tetra-daughter divisions, number: 0
HepG2 cells
  Cell death as compared to neutral pH: increased cell death
[2]; HepG2, 24 hours
  Bi-daughter divisions, % of total divisions: 99.1%
  Bi-daughter divisions, number: 1995
  Sum of Multi daughter Divisions, % of total mitotic divisions: 0.94%
  Sum of Multi daughter Divisions, number: 19
  Tetra-daughter divisions, % of total divisions: 0.25%
  Tetra-daughter divisions, number: 5
  Total number of observed divisions: 2014 (100)
  Tri-daughter divisions, % of total divisions: 0.69%
  Tri-daughter divisions, number: 14
  ≥Tetra-daughter divisions, number: 0
[2]; HepG2, 5 days
  Bi-daughter divisions, % of total divisions: 90.6%
  Bi-daughter divisions, number: 270
  Sum of Multi-daughter Divisions, % of total mitotic divisions: 9.30%
  Sum of Multi-daughter Divisions, number: 28
  Tetra-daughter divisions, % of total divisions: 2.6%
  Tetra-daughter divisions, number: 8
  Total Divisions: 298 (100)
  Tri-daughter divisions, % of total divisions: 5.7%
  Tri-daughter divisions, number: 17
  ≥Tetra-daughter divisions, % of total divisions: 1.0%
  ≥Tetra-daughter divisions, number: 3
A549 cells
  Cell death as compared to neutral pH: increased cell death
[3]; A549, 24 hours
  Bi-daughter divisions, % of total divisions: 99.9%
  Bi-daughter divisions, number: 2205
  Sum of Multi-daughter Divisions, % of total mitotic divisions: 0.13%
  Sum of Multi-daughter Divisions, number: 3
  Total number of observed divisions: 2208 (100)
  Tri-daughter divisions, % of total divisions: 0.13%
  Tri-daughter divisions, number: 3
[3]; A549, 5 days
  Bi-daughter divisions, % of total divisions: 97%
  Bi-daughter divisions, number: 259
  Sum of Multi-daughter Divisions, % of total mitotic divisions: 3.0%
  Sum of Multi-daughter Divisions, number: 8
  Tetra-daughter divisions, number: 0
  Total Divisions: 267 (100)
  Tri-daughter divisions, % of total divisions: 3%
  Tri-daughter divisions, number: 8
  ≥Tetra-daughter divisions, number: 0
